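96-well plates; 48 h exposure; 5 concentrations. Endpoints by linear interpolation between flanking doses. Not reached: highest tested concentration assigned. Abbreviation: GI50, concentration required for 50% inhibition of growth.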 Calls of active or inactive are those of the source. No stated cut-off is given here; in the data, active = GI50 up to about 1.1 µM and inactive = higher.
Legend:
Assay in all cases: NCI tumour cell line growth inhibition, 48 h
786-0 = system: 786-0
A498 = system: A498
A549 = system: A549
ACHN = system: ACHN
CAKI-1 = system: CAKI-1
CCRF-CEM = system: CCRF-CEM
COLO 205 = system: COLO 205
DMS-114 = system: DMS-114
DMS-273 = system: DMS-273
EKVX = system: EKVX
HCC 2998 = system: HCC 2998
HCT-116 = system: HCT-116
HCT-15 = system: HCT-15
HL-60 = system: HL-60
HOP-62 = system: HOP-62
HOP-92 = system: HOP-92
HT-29 = system: HT-29
IGROV-1 = system: IGROV-1
K562 = system: K562
KM-20L2 = system: KM-20L2
KM12 = system: KM12
LOX IMVI = system: LOX IMVI
LXFL 529 = system: LXFL 529
M14 = system: M14
M19-MEL = system: M19-MEL
MOLT-4 = system: MOLT-4
Malme-3M = system: Malme-3M
NCI-H226 = system: NCI-H226
NCI-H23 = system: NCI-H23
NCI-H460 = system: NCI-H460
NCI-H522 = system: NCI-H522
OVCAR-3 = system: OVCAR-3
OVCAR-4 = system: OVCAR-4
OVCAR-5 = system: OVCAR-5
OVCAR-8 = system: OVCAR-8
RPMI-8226 = system: RPMI-8226
RXF 393 = system: RXF 393
RXF 631 = system: RXF 631
SF-268 = system: SF-268
SF-295 = system: SF-295
SF-539 = system: SF-539
SK-MEL-28 = system: SK-MEL-28
SK-MEL-2 = system: SK-MEL-2
SK-MEL-5 = system: SK-MEL-5
SK-OV-3 = system: SK-OV-3
SN12C = system: SN12C
SNB-19 = system: SNB-19
SNB-75 = system: SNB-75
SNB-78 = system: SNB-78
SR = system: SR
SW-620 = system: SW-620
TK-10 = system: TK-10
U-251 = system: U-251
UACC-257 = system: UACC-257
UACC-62 = system: UACC-62
UO-31 = system: UO-31
XF498 = system: XF498

With `Cc1cc2c(cc1C)[n+]([O-])c(C(=O)CC(=O)C(=O)Nc1ccccc1C(C)C)c(C)[n+]2[O-]` the GI50 (786-0) was > 100 µM (inactive), the GI50 (A498) was > 100 µM (inactive) and the GI50 (A549) was > 100 µM (inactive). For the same molecule, the GI50 (ACHN) was > 100 µM (inactive), the GI50 (CAKI-1) was > 100 µM (inactive) and the GI50 (CCRF-CEM) was > 100 µM (inactive). The GI50 (COLO 205) was > 100 µM (inactive), the GI50 (DMS-114) was > 100 µM (inactive) and the GI50 (DMS-273) was > 100 µM (inactive). The GI50 (EKVX) was > 100 µM (inactive), the GI50 (HCC 2998) was > 100 µM (inactive) and the GI50 (HCT-116) was > 100 µM (inactive). The GI50 (HCT-15) was > 100 µM, the GI50 (HL-60) was > 100 µM (inactive) and the GI50 (HOP-62) was > 100 µM (inactive). The GI50 (HOP-92) was > 100 µM (inactive), the GI50 (HT-29) was > 100 µM (inactive) and the GI50 (IGROV-1) was > 100 µM (inactive). For the same molecule, the GI50 (K562) was > 100 µM (inactive), the GI50 (KM-20L2) was > 100 µM (inactive) and the GI50 (KM12) was > 100 µM (inactive). The GI50 (LOX IMVI) was > 100 µM (inactive), the GI50 (LXFL 529) was > 100 µM (inactive) and the GI50 (M14) was > 100 µM (inactive). For the same molecule, the GI50 (M19-MEL) was > 100 µM (inactive), the GI50 (MOLT-4) was > 100 µM (inactive) and the GI50 (Malme-3M) was > 100 µM (inactive). For the same molecule, the GI50 (NCI-H226) was > 100 µM (inactive), the GI50 (NCI-H23) was > 100 µM (inactive) and the GI50 (NCI-H460) was > 100 µM (inactive). For the same molecule, the GI50 (NCI-H522) was > 100 µM (inactive), the GI50 (OVCAR-3) was > 100 µM (inactive) and the GI50 (OVCAR-4) was > 100 µM (inactive). The GI50 (OVCAR-5) was > 100 µM (inactive), the GI50 (OVCAR-8) was > 100 µM (inactive) and the GI50 (RPMI-8226) was > 100 µM (inactive). The GI50 (RXF 393) was > 100 µM (inactive), the GI50 (RXF 631) was > 100 µM (inactive) and the GI50 (SF-268) was > 100 µM (inactive). For the same molecule, the GI50 (SF-295) was > 100 µM (inactive), the GI50 (SF-539) was > 100 µM (inactive) and the GI50 (SK-MEL-28) was > 100 µM (inactive). The GI50 (SK-MEL-2) was > 100 µM (inactive), the GI50 (SK-MEL-5) was > 100 µM (inactive) and the GI50 (SK-OV-3) was > 100 µM (inactive). For the same molecule, the GI50 (SN12C) was > 100 µM (inactive), the GI50 (SNB-19) was > 100 µM (inactive) and the GI50 (SNB-75) was > 100 µM (inactive). The GI50 (SNB-78) was > 100 µM (inactive), the GI50 (SR) was > 100 µM (inactive) and the GI50 (SW-620) was > 100 µM (inactive). For the same molecule, the GI50 (TK-10) was 25.5 µM (inactive), the GI50 (U-251) was > 100 µM (inactive) and the GI50 (UACC-257) was 1.08 µM (active). The GI50 (UACC-62) was > 100 µM (inactive), the GI50 (UO-31) was > 100 µM (inactive) and the GI50 (XF498) was > 100 µM (inactive).
